Source: US7713966B2, “Heterobicyclic metalloprotease inhibitors” (Alantos Pharmaceuticals Holding, Inc., priority 2006, dated 2010)

Tests used:
Assay type in all cases: biochemical
[1] = target: T1, catalytic domain of MMP-13 enzyme (Homo sapiens, UniProt P45452); test: Assay for determining MMP-13 inhibition (fluorescent substrate); conditions: read-out: MMP-13 Activity (IC50 MMP-13), Group
T1 construct: catalytic domain of MMP-13 enzyme (produced by Alantos or commercially available from Invitek (Berlin), Cat. # 30100812); purchased Invitek (Berlin) 30100812
Experimental: The typical assay for MMP-13 activity is carried out in assay buffer comprised of 50 mM Tris, pH 7.5, 150 mM NaCl, 5 mM CaCl2 and 0.05% Brij-35. Different concentrations of tested compounds are prepared in assay buffer in 50 μL aliquots. 10 μL of a 50 nM stock solution of catalytic domain of MMP-13 enzyme (produced by Alantos or commercially available from Invitek (Berlin), Cat. # 30100812) is added to the compound solution. The mixture of enzyme and compound in assay buffer is thoroughly mixed and incubated for 10 min at room temperature. Upon the completion of incubation, the assay is started by addition of 40 μl of a 12.5 μM stock solution of MMP-13 fluorescent substrate (Calbiochem, Cat. No. 444235). The time-dependent increase in fluorescence is measured at the 320 nm excitation and 390 nm emission by automatic plate multireader. The IC50 values are calculated from the initial reaction rates.

[2] = target: T2, catalytic domain of MMP-3 enzyme (Homo sapiens, UniProt P08254); test: Assay for determining MMP-3 inhibition (NFF-3 fluorescent substrate); conditions: read-out: MMP-3 Activity (IC50 MMP-3), Group
T2 construct: catalytic domain of MMP-3 enzyme (Biomol, Cat. No. SE-109); purchased Biomol SE-109
Experimental: The typical assay for MMP-3 activity is carried out in assay buffer comprised of 50 mM MES, pH 6.0, 10 mM CaCl2 and 0.05% Brij-35. Different concentrations of tested compounds are prepared in assay buffer in 50 μL aliquots. 10 μL of a 100 nM stock solution of the catalytic domain of MMP-3 enzyme (Biomol, Cat. No. SE-109) is added to the compound solution. The mixture of enzyme and compound in assay buffer is thoroughly mixed and incubated for 10 min at room temperature. Upon the completion of incubation, the assay is started by addition of 40 μL of a 12.5 μM stock solution of NFF-3 fluorescent substrate (Calbiochem, Cat. No. 480455). The time-dependent increase in fluorescence is measured at the 330 nm excitation and 390 nm emission by an automatic plate multireader. The IC50 values are calculated from the initial reaction rates.

activated MMP-8 enzyme = target: T3, activated MMP-8 enzyme (Homo sapiens, UniProt P22894); test: Assay for determining MMP-8 inhibition (OmniMMP fluorescent substrate); conditions: read-out: MMP-8 Activity (IC50 MMP-8), Group
T3 construct: purchased Calbiochem 444229
Experimental: The typical assay for MMP-8 activity is carried out in assay buffer comprised of 50 mM Tris, pH 7.5, 150 mM NaCl, 5 mM CaCl2 and 0.05% Brij-35. Different concentrations of tested compounds are prepared in assay buffer in 50 μL aliquots. 10 μL of a 50 nM stock solution of activated MMP-8 enzyme (Calbiochem, Cat. No. 444229) is added to the compound solution. The mixture of enzyme and compound in assay buffer is thoroughly mixed and incubated for 10 min at 37° C. Upon the completion of incubation, the assay is started by addition of 40 μL of a 10 μM stock solution of OmniMMP fluorescent substrate (Biomol, Cat. No. P-126). The time-dependent increase in fluorescence is measured at the 320 nm excitation and 390 nm emission by an automatic plate multireader at 37° C. The IC50 values are calculated from the initial reaction rates.

T2 sequence (P08254 100-272 limits assumed): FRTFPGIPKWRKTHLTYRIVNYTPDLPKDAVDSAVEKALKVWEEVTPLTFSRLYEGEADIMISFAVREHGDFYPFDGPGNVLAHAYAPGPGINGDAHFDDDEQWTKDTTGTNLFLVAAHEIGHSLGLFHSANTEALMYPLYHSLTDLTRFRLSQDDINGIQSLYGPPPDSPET
T3 sequence (P22894 101-467): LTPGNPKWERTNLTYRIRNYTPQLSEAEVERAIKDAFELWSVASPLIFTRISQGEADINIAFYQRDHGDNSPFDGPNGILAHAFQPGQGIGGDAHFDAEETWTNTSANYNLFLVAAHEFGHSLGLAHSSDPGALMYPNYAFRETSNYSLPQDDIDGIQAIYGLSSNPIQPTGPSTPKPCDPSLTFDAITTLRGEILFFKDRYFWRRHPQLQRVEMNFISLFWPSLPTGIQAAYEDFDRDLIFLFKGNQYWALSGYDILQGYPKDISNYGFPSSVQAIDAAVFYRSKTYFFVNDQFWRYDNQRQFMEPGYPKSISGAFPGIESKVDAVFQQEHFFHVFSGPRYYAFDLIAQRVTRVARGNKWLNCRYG

Structure (SMILES) | IC50 [1] | IC50 [2] | IC50 (activated MMP-8 enzyme)
Cc1nsc2nc(C(=O)NCc3ccc4c(c3)CN(c3c(N)c(=O)c3=O)CC4)[nH]c(=O)c12 [2/134] | 0.1 to 20 µM | < 0.25 µM | 0.25 to 20 µM
Cc1csc2nc(C(=O)NCc3ccc4c(c3)CN(c3c(N)c(=O)c3=O)CC4)[nH]c(=O)c12 [2/10] | < 0.1 µM | < 0.25 µM | < 0.25 µM
O=C1COc2ccc(CNC(=O)c3nc4ccc(F)cc4c(=O)[nH]3)cc2N1 [2/23] | < 0.1 µM | < 0.25 µM | < 0.25 µM
Nc1c(N2CCc3ccc(CNC(=O)c4nc5scc(-c6ccccc6)c5c(=O)[nH]4)cc3C2)c(=O)c1=O [2/110] | < 0.1 µM | 0.25 to 20 µM | 0.25 to 20 µM
COc1ccc2nc(C(=O)NCc3ccc4c(c3)NC(=O)CO4)[nH]c(=O)c2c1 [2/71] |  | < 0.25 µM | 
Cc1sc2nc(C(=O)NCc3ccc4c(c3)NC(=O)CO4)[nH]c(=O)c2c1-c1ccccc1 [2/105] |  | 0.25 to 20 µM | 0.25 to 20 µM
O=C1COc2ccc(CNC(=O)c3nc4ccc(Cl)cc4c(=O)[nH]3)cc2N1 [2/26] |  | < 0.25 µM | < 0.25 µM
O=C1COc2ccc(CNC(=O)c3nc4scc(-c5cccs5)c4c(=O)[nH]3)cc2N1 [2/49] |  | < 0.25 µM | 0.25 to 20 µM
O=C1COc2ccc(CNC(=O)c3nc4scc(-c5cccnc5)c4c(=O)[nH]3)cc2N1 [2/115] | < 0.1 µM |  | 0.25 to 20 µM
CC(=O)NCc1ccc2nc(C(=O)NCc3ccc4c(c3)NC(=O)CO4)[nH]c(=O)c2c1 [2/91] |  | < 0.25 µM | 
O=C(Cc1csc2nc(C(=O)NCc3ccc4c(c3)NC(=O)CO4)[nH]c(=O)c12)NCc1ccc2c(c1)NC(=O)CO2 [2/149] | < 0.1 µM |  | < 0.25 µM
Cc1c(C(=O)Nc2ccccc2)sc2nc(C(=O)NCc3ccc4c(c3)NC(=O)CO4)[nH]c(=O)c12 [2/62] | < 0.1 µM |  | 0.25 to 20 µM

Now from value to compound:

IC50 [1] | IC50 [2] | IC50 (activated MMP-8 enzyme) | Structure (SMILES)
0.1 to 20 µM | 0.25 to 20 µM |  | O=C1COc2ccc(CNC(=O)c3nc4[nH]ncc4c(=O)[nH]3)cc2N1 [39/13]
 | 0.25 to 20 µM | < 0.25 µM | CNC(=O)C(C)c1csc2nc(C(=O)NCc3ccc4c(c3)NC(=O)CO4)[nH]c(=O)c12 (stereo not shown) [2/183]
< 0.1 µM | 0.25 to 20 µM | < 0.25 µM | CC(C)(C)OC(=O)NCc1ccc2nc(C(=O)NCc3ccc4c(c3)NC(=O)CO4)[nH]c(=O)c2c1 [Example 14]
< 0.1 µM | < 0.25 µM | 0.25 to 20 µM | O=C1COc2ccc(CNC(=O)c3nc4scc(-c5cnccn5)c4c(=O)[nH]3)cc2N1 [2/185]
< 0.1 µM | < 0.25 µM |  | Nc1c(N2CCc3ccc(CNC(=O)c4nc5scc(-c6cnccn6)c5c(=O)[nH]4)cc3C2)c(=O)c1=O [2/186]
< 0.1 µM | 0.25 to 20 µM |  | O=C(Cc1csc2nc(C(=O)NCc3ccc4c(c3)NC(=O)CO4)[nH]c(=O)c12)NCS(=O)(=O)O [2/271]
< 0.1 µM | 0.25 to 20 µM |  | Cc1c(CC(=O)O)sc2nc(C(=O)NCc3ccc4c(c3)NC(=O)CO4)[nH]c(=O)c12 [4/12]
 | 0.25 to 20 µM |  | O=C1COc2ccc(CNC(=O)c3nc4cccc(NCc5ccccc5)c4c(=O)[nH]3)cc2N1 [36/3]
< 0.1 µM |  | < 0.25 µM | C#Cc1ccc2nc(C(=O)NCc3ccc4c(c3)NC(=O)CO4)[nH]c(=O)c2c1 [Example 8]
< 0.1 µM |  | < 0.25 µM | Nc1ccc2nc(C(=O)NCc3ccc4c(c3)NC(=O)CO4)[nH]c(=O)c2c1 [Example 5]
< 0.1 µM |  | < 0.25 µM | Cc1c(CO)sc2nc(C(=O)NCc3ccc4c(c3)NCCO4)[nH]c(=O)c12 [Example 20c]
< 0.1 µM |  | < 0.25 µM | CC(=NO)c1sc2nc(C(=O)NCc3ccc4c(c3)NC(=O)CO4)[nH]c(=O)c2c1C [Example 16]
< 0.1 µM |  | < 0.25 µM | O=C1COc2ccc(CNC(=O)c3nc4ccc(CNC(=O)C56C7C8C5C5C6C7C85C(=O)O)cc4c(=O)[nH]3)cc2N1 (stereo not shown) [4/3]
< 0.1 µM |  | < 0.25 µM | C[C@@H](Nc1cccc2nc(C(=O)NCc3ccc4c(c3)NC(=O)CO4)[nH]c(=O)c12)c1ccccc1 [36/2]
